Measured values taken from patent US20260085077A1, “HETEROCYCLIC DERIVATIVES AS JANUS KINASE INHIBITORS” (CHIESI FARMACEUTICI S.P.A., priority 2022, published 2026).

What follows are compounds tested on IL-13 induced pSTAT6 in BEAS-2B human cell line (assay: Inhibition of IL-13 induced pSTAT6 in BEAS). Conditions: IL-13 induced pSTAT6, BEAS-2B cells, ELISA.
Format: cell-based
In short: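 BEAS-2B cells, cultured 48 h, were pretreated with compounds 30 min, then stimulated with IL-13 for 30 min. Phospho-STAT6 (Tyr641) in lysates quantified by sandwich ELISA; 11-point 5-fold series from 10 μM […], duplicate, IC50 fitted with QC (Z′≥0.35, Hill slope 0.5-5, S:B>2).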
For `COc1cc2c(cc1-n1nc(C(=O)NCCN3CCC4(COC4)C3)c3cnc(-c4cnn5cccnc45)cc31)OCCN2` [Example 82, N-(2-(2-oxa-6-azaspiro[3.4]octan-6-yl)ethyl)-1-(6-methoxy-3,4-dihydro-2H-benzo[b][1,4]oxazin-7-yl)-6-(pyrazolo[1,5-a]pyrimidin-3-yl)-1H-pyrazolo[4,3-c]pyridine-3-carboxamide], the IC50 was 5.01 to 50.1 nM.
In the case of `COc1cc2c(cc1-n1nc(C)c3cnc(-c4cnn5cccnc45)cc31)C(=O)CCN2` [Example 5, 7-methoxy-6-(3-methyl-6-(pyrazolo[1,5-a]pyrimidin-3-yl)-1H-pyrazolo[4,3-c]pyridin-1-yl)-2,3-dihydroquinolin-4(1H)-one], the IC50 is reported as 5.01 to 50.1 nM.
With `COc1cc2c(cc1-n1nc(NC(=O)OCCCN3CCOC(=O)C3)c3cnc(-c4cnn5cccnc45)cc31)SCCN2` [Example 19, 3-(2-oxomorpholino)propyl (1-(6-methoxy-3,4-dihydro-2H-benzo[b][1,4]thiazin-7-yl)-6-(pyrazolo[1,5-a]pyrimidin-3-yl)-1H-pyrazolo[4,3-c]pyridin-3-yl)carbamate] the IC50 was 5.01 to 50.1 nM.
With `COc1cc2c(cc1-n1nc(C)c3cnc(-c4cnn5cccnc45)cc31)CCCC(=O)N2` [Example 3, 8-methoxy-7-(3-methyl-6-(pyrazolo[1,5-a]pyrimidin-3-yl)-1H-pyrazolo[4,3-c]pyridin-1-yl)-1,3,4,5-tetrahydro-2H-benzo[b]azepin-2-one] the IC50 was 5.01 to 50.1 nM.
With `COc1cc2c(cc1-n1nc(C(=O)NCCN3CC(=O)OC(C)(C)C3)c3cnc(-c4cnn5cccnc45)cc31)OCCN2` [Example 77, N-(2-(2,2-dimethyl-6-oxomorpholino)ethyl)-1-(6-methoxy-3,4-dihydro-2H-benzo[b][1,4]oxazin-7-yl)-6-(pyrazolo[1,5-a]pyrimidin-3-yl)-1H-pyrazolo[4,3-c]pyridine-3-carboxamide] the IC50 was 5.01 to 50.1 nM.
Compound `COc1cc2c(cc1-n1nc(NC(=O)OCCN(C)C3CCOC3=O)c3cnc(-c4cnn5cccnc45)cc31)SCCN2` (centres unmarked) [Example 20, 2-(methyl(2-oxotetrahydrofuran-3-yl)amino)ethyl (1-(6-methoxy-3,4-dihydro-2H-benzo[b][1,4]thiazin-7-yl)-6-(pyrazolo[1,5-a]pyrimidin-3-yl)-1H-pyrazolo[4,3-c]pyridin-3-yl)carbamate] has an IC50 of 5.01 to 50.1 nM.
`COc1cc2c(cc1-n1nc(C(=O)NC[C@@H]3CN(C)CCO3)c3cnc(-c4cnn5cccnc45)cc31)SCC(=O)N2` [Example 21, (R)-1-(6-methoxy-3-oxo-3,4-dihydro-2H-benzo[b][1,4]thiazin-7-yl)-N-((4-methylmorpholin-2-yl)methyl)-6-(pyrazolo[1,5-a]pyrimidin-3-yl)-1H-pyrazolo[4,3-c]pyridine-3-carboxamide] gave an IC50 of 5.01 to 50.1 nM.
`COc1cc2c(cc1-n1nc(C)c3cnc(-c4cnn5cccnc45)cc31)SCC(=O)N2` [Example 7, 6-methoxy-7-(3-methyl-6-(pyrazolo[1,5-a]pyrimidin-3-yl)-1H-pyrazolo[4,3-c]pyridin-1-yl)-2H-benzo[b][1,4]thiazin-3(4H)-one] was tested, and the IC50 was 5.01 to 50.1 nM.
`COc1cc2c(cc1-n1nc(C(=O)NCCN3CC4(COC(=O)C4)C3)c3cnc(-c4cnn5cccnc45)cc31)OCCN2` [Example 81, 1-(6-methoxy-3,4-dihydro-2H-benzo[b][1,4]oxazin-7-yl)-N-(2-(7-oxo-6-oxa-2-azaspiro[3.4]octan-2-yl)ethyl)-6-(pyrazolo[1,5-a]pyrimidin-3-yl)-1H-pyrazolo[4,3-c]pyridine-3-carboxamide] was tested, and the IC50 was 5.01 to 50.1 nM.
Work on `COc1cc2c(cc1-n1nc(C)c3cnc(-c4cnn5cccnc45)cc31)OCCCN2` [Example 9, 7-methoxy-8-(3-methyl-6-(pyrazolo[1,5-a]pyrimidin-3-yl)-1H-pyrazolo[4,3-c]pyridin-1-yl)-2,3,4,5-tetrahydrobenzo[b][1,4]oxazepine] yielded an IC50 of 5.01 to 50.1 nM.
In the case of `CNc1nn(-c2cc3c(cc2OC)NC(=O)CC3)c2cc(-c3cnn4cccnc34)ncc12` [Example 26, 7-methoxy-6-(3-(methylamino)-6-(pyrazolo[1,5-a]pyrimidin-3-yl)-1H-pyrazolo[4,3-c]pyridin-1-yl)-3,4-dihydroquinolin-2(1H)-one], the IC50 is reported as 5.01 to 50.1 nM.
In the case of `COc1cc2c(cc1-n1nc(C(=O)NC[C@@H]3CN(C)CCO3)c3cnc(-c4cnn5cccnc45)cc31)SCCN2` [Example 18, (R)-1-(6-methoxy-3,4-dihydro-2H-benzo[b][1,4]thiazin-7-yl)-N-((4-methylmorpholin-2-yl)methyl)-6-(pyrazolo[1,5-a]pyrimidin-3-yl)-1H-pyrazolo[4,3-c]pyridine-3-carboxamide], the IC50 is reported as 5.01 to 50.1 nM.
`COc1cc2c(cc1-n1nc(C)c3cnc(-c4cnn5cccnc45)cc31)OCCN2` [Example 40, 6-methoxy-7-(3-methyl-6-(pyrazolo[1,5-a]pyrimidin-3-yl)-1H-pyrazolo[4,3-c]pyridin-1-yl)-3,4-dihydro-2H-benzo[b][1,4]oxazine] gave an IC50 of 5.01 to 50.1 nM.
With `COc1cc2c(cc1-n1nc(C(=O)NCCCN(C)C)c3cnc(-c4cnn5cccnc45)cc31)CCCN2` [Example 25, N-(3-(dimethylamino)propyl)-1-(7-methoxy-1,2,3,4-tetrahydroquinolin-6-yl)-6-(pyrazolo[1,5-a]pyrimidin-3-yl)-1H-pyrazolo[4,3-c]pyridine-3-carboxamide] the IC50 was 5.01 to 50.1 nM.
